The results in this text go back to ChEMBL document CHEMBL6121002, “Discovery of novel bicyclic and tricyclic cyclohepta[b]thiophene derivatives as multipotent AChE and BChE inhibitors, in-Vivo and in-Vitro assays, ADMET and molecular docking simulation” (Eur J Med Chem, 2025).

Assay [1] relates to Rattus norvegicus. Nature of the assay: Antialzheimer activity in AlCl3-induced learning and memory impairment in Sprague-Dawley rat assessed as fold increase in norepinephrine level in brain tissue at 30 mg/kg, po measured after 5 weeks by fluorometric analysis relative to control. Format: functional.
Another assay deals with Cholinesterase (Homo sapiens, UniProt P06276). Nature of the assay: Inhibition of BChE (unknown origin) using butyrylthiocholine iodide as substrate incubated for 20 mins by fluorescence based assay.
Chain of Cholinesterase (P06276 whole entry): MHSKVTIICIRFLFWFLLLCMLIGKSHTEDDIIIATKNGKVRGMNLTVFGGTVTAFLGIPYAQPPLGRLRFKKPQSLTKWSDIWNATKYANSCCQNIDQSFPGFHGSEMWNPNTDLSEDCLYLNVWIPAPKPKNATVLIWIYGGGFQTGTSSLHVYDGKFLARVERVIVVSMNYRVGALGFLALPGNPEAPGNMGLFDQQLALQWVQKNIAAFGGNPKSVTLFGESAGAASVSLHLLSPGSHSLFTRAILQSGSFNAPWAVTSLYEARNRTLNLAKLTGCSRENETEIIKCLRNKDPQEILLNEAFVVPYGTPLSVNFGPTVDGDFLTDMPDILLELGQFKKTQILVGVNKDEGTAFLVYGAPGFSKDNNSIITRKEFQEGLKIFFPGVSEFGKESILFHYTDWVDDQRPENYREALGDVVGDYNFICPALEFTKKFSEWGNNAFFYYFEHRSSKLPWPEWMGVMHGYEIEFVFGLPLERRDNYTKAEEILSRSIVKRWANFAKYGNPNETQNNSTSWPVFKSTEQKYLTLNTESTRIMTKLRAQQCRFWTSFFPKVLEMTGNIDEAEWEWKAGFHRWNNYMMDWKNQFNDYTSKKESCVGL
For assay [2], the system named is Rattus norvegicus. The assay is described as follows: Antialzheimer activity in AlCl3-induced learning and memory impairment in Sprague-Dawley rat assessed as time taken for learning at 30 mg/kg, po measured after 5 weeks by MWM test (reference value: 53.67 +/- 1.05 sec). Format: functional.
Assay [3] is described as follows: Selectivity index, ratio of IC50 for BChE (unknown origin) using butyrylthiocholine iodide as substrate to IC50 for AChE (unknown origin).
Assay [4] concerns Rattus norvegicus. Nature of the assay: Antialzheimer activity in AlCl3-induced learning and memory impairment in Sprague-Dawley rat assessed as time taken for memory at 30 mg/kg, po measured after 5 weeks by MWM test (reference value: 6.833 +/- 0.79 sec). Format: functional.
Assay [5] concerns Rattus norvegicus. Nature of the assay: Antialzheimer activity in AlCl3-induced learning and memory impairment in Sprague-Dawley rat assessed as fold decrease in AChE level in brain tissue at 30 mg/kg, po measured after 5 weeks by fluorometric analysis relative to control. Format: functional.
The subject of assay [6] is Rattus norvegicus. Nature of the assay: Antialzheimer activity in AlCl3-induced learning and memory impairment in Sprague-Dawley rat assessed as reduction in TNF-alpha level in brain tissue at 30 mg/kg, po measured after 5 weeks by ELISA relative to control. On the set-up: scale not given: the % may be the effect or the level left. Format: functional.
For assay [7], the system named is Rattus norvegicus. The assay is described as follows: Antialzheimer activity in AlCl3-induced learning and memory impairment in Sprague-Dawley rat assessed as fold increase in dopamine level in brain tissue at 30 mg/kg, po measured after 5 weeks by fluorometric analysis relative to control. Format: functional.
In assay [8] the test system is Rattus norvegicus. The assay is described as follows: Antialzheimer activity in AlCl3-induced learning and memory impairment in Sprague-Dawley rat assessed as spontaneous alternation at 30 mg/kg, po measured after 5 weeks by Y-maze test (reference value: 50 +/- 2.89 %). Format: functional.
Assay [9] has as its system Rattus norvegicus. Nature of the assay: Antialzheimer activity in AlCl3-induced learning and memory impairment in Sprague-Dawley rat assessed as reduction in escape latency time at 30 mg/kg, po measured after 5 weeks by MWM test relative to control. Details: scale not given: the % may be the effect or the level left. Format: functional.
The test system of assay [10] is Rattus norvegicus. Nature of the assay: Antialzheimer activity in AlCl3-induced learning and memory impairment in Sprague-Dawley rat assessed as fold increase in time spent in target quadrant at 30 mg/kg, po measured after 5 weeks by […] relative to control. Format: functional.
Another assay deals with Acetylcholinesterase (Homo sapiens, UniProt P22303). Nature of the assay: Inhibition of AChE (unknown origin) incubated for 40 mins in presence of substrate.
Chain of Acetylcholinesterase (P22303 whole entry): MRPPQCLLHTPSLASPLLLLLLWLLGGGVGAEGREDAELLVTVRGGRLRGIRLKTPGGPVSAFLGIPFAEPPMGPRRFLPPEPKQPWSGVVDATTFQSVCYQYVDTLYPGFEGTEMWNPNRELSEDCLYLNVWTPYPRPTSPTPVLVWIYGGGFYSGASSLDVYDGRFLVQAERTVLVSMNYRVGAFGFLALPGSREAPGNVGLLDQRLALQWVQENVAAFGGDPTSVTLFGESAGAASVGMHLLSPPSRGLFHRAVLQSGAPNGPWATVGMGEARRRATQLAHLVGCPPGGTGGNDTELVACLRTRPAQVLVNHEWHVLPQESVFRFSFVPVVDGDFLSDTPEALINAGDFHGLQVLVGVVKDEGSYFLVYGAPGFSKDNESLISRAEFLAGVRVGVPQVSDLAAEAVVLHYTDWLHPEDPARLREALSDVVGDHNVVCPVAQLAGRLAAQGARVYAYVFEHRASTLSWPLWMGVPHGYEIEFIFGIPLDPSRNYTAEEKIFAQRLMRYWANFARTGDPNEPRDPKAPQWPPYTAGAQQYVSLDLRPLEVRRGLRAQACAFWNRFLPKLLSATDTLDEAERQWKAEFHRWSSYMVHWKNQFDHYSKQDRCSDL
For assay [11], the system named is Rattus norvegicus. The assay is described as follows: Antialzheimer activity in AlCl3-induced learning and memory impairment in Sprague-Dawley rat assessed as increase in time spent in target quadrant at 30 mg/kg, po measured after 5 weeks by […]. Format: functional, organism-based.
Assay [12] deals with Rattus norvegicus. Nature of the assay: Antialzheimer activity in AlCl3-induced learning and memory impairment in Sprague-Dawley rat assessed as fold increase in 5-HT level in brain tissue at 30 mg/kg, po measured after 5 weeks by fluorometric analysis relative to control. Format: functional.

Each structure is given as a SMILES string. The source made the active and inactive calls. The calls are words filed in the database; no cut-off is given here. A value given as a limit tells only on which side of the number the result lay.

Take `O=C1c2c(sc3c2CCCCC3)OC(c2ccccc2)N1c1ccc(Cl)cc1` (stereo not drawn): the “fold change (FC)” value is 1.7 in the assay with Rattus norvegicus [1], 2.3 in the assay with Rattus norvegicus [5], 1.7 with Rattus norvegicus [7] and 5.2 in the assay with Rattus norvegicus [10]. Besides, the values for the IC50 on Cholinesterase and at Acetylcholinesterase were 24.7 µM and 9.48 µM, respectively. Also, the values for the Time in the assay on Rattus norvegicus [2] and in the assay on Rattus norvegicus [4] were 25.67 s and 35.5 s, respectively. The Ratio IC50 in [3] was 2.6. Further, the Activity with Rattus norvegicus [6] is 54.5%; with Rattus norvegicus [8], 71.5%; in the assay on Rattus norvegicus [9], “<=47%”. Further, the result with Rattus norvegicus [11] was Active.

On to `O=C1c2c(sc3c2CCCCC3)OC(c2ccc(Cl)cc2)N1c1ccccc1` (stereo not drawn), for which the “fold change (FC)” value amounted to 1.7 in the assay with Rattus norvegicus [1], 2.3 with Rattus norvegicus [5], 1.7 in the assay on Rattus norvegicus [7] and 5.4 with Rattus norvegicus [10]. Also, the IC50 – broadly, the midpoint of a concentration-inhibition curve – on Cholinesterase amounted to 6.9 µM; at Acetylcholinesterase, 0.55 µM. The Time in the assay on Rattus norvegicus [2] was determined as 24.67 s; with Rattus norvegicus [4] it was 36.83 s. Also, the Ratio IC50 in [3] was found to be 12.6. The Activity is recorded as 54.6% in the assay on Rattus norvegicus [6], 73.83% with Rattus norvegicus [8] and “<=46%” in the assay with Rattus norvegicus [9]. Further, in the assay with Rattus norvegicus [11], the outcome was Active.

Regarding `CCOC(=O)c1c(OC(=O)c2ccccc2)sc2c1CCCCC2`, the IC50 was 7.5 µM against Cholinesterase and 2.16 µM at Acetylcholinesterase. The Time is on record as 37 s with Rattus norvegicus [2] and 24.17 s with Rattus norvegicus [4]. The Ratio IC50 in assay [3] was 3.47. The Activity is recorded as 43.8% with Rattus norvegicus [6] and 63.5% in the assay on Rattus norvegicus [8]. For the same molecule, the “fold change (FC)” value in the assay on Rattus norvegicus [7] came to 1.7. The result with Rattus norvegicus [11] was Active.

On to `CCOC(=O)c1c(OC(=O)c2ccc(Cl)cc2)sc2c1CCCCC2`, for which the IC50 is 2.9 µM on Cholinesterase and 1.05 µM on Acetylcholinesterase. For the same molecule, the Time with Rattus norvegicus [2] is listed as 34 s; in the assay on Rattus norvegicus [4], 27.67 s. Moreover, the Ratio IC50 in assay [3] came out at 2.76. Besides, the Activity with Rattus norvegicus [6] was 49.2%; in the assay with Rattus norvegicus [8], 70.67%. In addition, the “fold change (FC)” value with Rattus norvegicus [7] was 1.7. Moreover, the outcome in the assay with Rattus norvegicus [11] was Active.

For `O=C1c2c(sc3c2CCCCC3)OC(c2ccccc2)N1c1ccccc1` (stereo not drawn), the “fold change (FC)” value in the assay with Rattus norvegicus [1] is listed as 2.2; in the assay with Rattus norvegicus [5] it was 3.5; with Rattus norvegicus [7], 3.8; with Rattus norvegicus [10], 5.3; with Rattus norvegicus [12], 4.5. Moreover, the values for the IC50 against Cholinesterase and on Acetylcholinesterase were 2.48 µM and 0.51 µM, respectively. Moreover, the Time in the assay with Rattus norvegicus [2] is given as 17 s; with Rattus norvegicus [4], 35.83 s. In assay [3], the Ratio IC50 was 4.86. Moreover, the Activity in the assay on Rattus norvegicus [6] worked out at 61.2%; in the assay with Rattus norvegicus [8], 80%; in the assay on Rattus norvegicus [9] it was 32%. Moreover, the outcome with Rattus norvegicus [11] was Active.

As to `COc1cc2c(cc1OC)C(=O)C(CC1CCN(Cc3ccccc3)CC1)C2` (stereo not drawn) [DONEPEZIL], the values for the Time in the assay on Rattus norvegicus [2] and in the assay on Rattus norvegicus [4] were 14.78 s and 42.67 s, respectively. The Activity in the assay with Rattus norvegicus [6] was found to be 63%; in the assay on Rattus norvegicus [8], 85%; in the assay on Rattus norvegicus [9], 28%. The result in the assay on Rattus norvegicus [11] was Active.

Take `COc1ccc(N2C(=O)c3c(sc4c3CCCCC4)OC2c2ccccc2)cc1` (stereo not drawn): the “fold change (FC)” value with Rattus norvegicus [1] is 1.7; with Rattus norvegicus [5] it was 2.3; in the assay with Rattus norvegicus [7], 3.5; with Rattus norvegicus [10], 5.6. Further, the IC50 at Cholinesterase worked out at 11 µM; at Acetylcholinesterase, 4.05 µM. The Time in the assay on Rattus norvegicus [2] stood at 23 s; in the assay with Rattus norvegicus [4], 38.17 s. Besides, in assay [3], the Ratio IC50 stood at 2.73. The results for the Activity in the assay on Rattus norvegicus [6], with Rattus norvegicus [8] and in the assay with Rattus norvegicus [9] were 62.6%, 74.33% and “<=43%”, respectively. Further, in the assay with Rattus norvegicus [11], the result was Active.

Consider `COc1ccc(N2C(=O)c3c(sc4c3CCCCC4)OC2c2ccc(Cl)cc2)cc1` (stereo not drawn), for which the “fold change (FC)” value turned out to be 2.9 in the assay on Rattus norvegicus [1], 3.8 in the assay with Rattus norvegicus [7], 5.9 in the assay on Rattus norvegicus [10] and 5.1 in the assay on Rattus norvegicus [12]. In addition, the 50% inhibitory concentration (IC50) against Cholinesterase came out at 7.76 µM; on Acetylcholinesterase it was 3.14 µM. For the same molecule, the Time in the assay with Rattus norvegicus [2] was determined as 16.33 s; in the assay on Rattus norvegicus [4], 41.67 s. Also, in assay [3], the Ratio IC50 was found to be 2.47. The Activity is given as 70.8% with Rattus norvegicus [6], 85% in the assay on Rattus norvegicus [8] and 30% with Rattus norvegicus [9]. Moreover, the outcome in the assay with Rattus norvegicus [11] was Active.

Consider `O=C1c2c(sc3c2CCCCC3)OC(c2ccc(Cl)cc2)N1c1ccc(Cl)cc1` (stereo not drawn), for which the “fold change (FC)” value was roughly 3.2 in the assay with Rattus norvegicus [1], 4.2 in the assay with Rattus norvegicus [7], 6.5 in the assay with Rattus norvegicus [10] and 5.8 in the assay with Rattus norvegicus [12]. In addition, the figures for the IC50 against Cholinesterase and on Acetylcholinesterase were 308 µM and 12.6 µM, respectively. Moreover, the Time is reported as 11.83 s in the assay with Rattus norvegicus [2] and 46.5 s in the assay on Rattus norvegicus [4]. The Ratio IC50 in assay [3] stood at 24.4. The results for the Activity in the assay on Rattus norvegicus [6], with Rattus norvegicus [8] and in the assay on Rattus norvegicus [9] were 73.9%, 83.33% and 22%, respectively. In addition, the result in the assay on Rattus norvegicus [11] was Active.
